From article PMC11892739, “Site-specific molecular glues for the 14-3-3/Tau pS214 protein–protein interaction via reversible covalent imine tethering” (RSC Medicinal Chemistry, 2025)

Target: T1, 14-3-3ζ/Raptor peptide (Homo sapiens, UniProt P63104)
T1 construct: made in house; host or cells: NiCo21 (DE3) E. coli
Assay: FA peptide screen, 14-3-3ζ titration to client peptide and compound: Raptor
Format: binding
Conditions: 250 μM compound, 100 nM peptide; +1 Tyr
Method: Since the hub protein 14-3-3 binds to hundreds of phosphoprotein partners, selectivity of PPI stabilization is a major challenge. The interplay of chemical reactivity, and the topology and functionality of the composite binding pocket shaped by 14-3-3 and Tau potentially provide entries towards selective stabilization. […] Here, 14-3-3ζ was titrated to a constant concentration of client peptide (100 nM) and compound (250 μM) to determine the SF250μM values for the particular 14-3-3 PPI. A variety of 14-3-3 binding proteins was represented in this client panel whereby the size and hydrophobicity of the +1 amino acid were varied. […]
chromatography (HisTrap high performance cartridges, Cytiva). Typically two 5 mL columns were used for a 2 L culture in which the lysate was loaded on the column, washed with 10 CV wash buffer (50 mM Hepes, pH 8.0, 300 mM NaCl, 25 mM imidazole, 2 mM βME), and eluted with several fractions (2-4 CV) of elution buffer (50 mM Hepes, pH 8.0, 300 mM NaCl, 250 mM imidazole, 2 mM βME). […] Dialyzed protein was concentrated to ∼40 mg/mL, analyzed by Q -Tof LC/MS, and aliquots were flash -frozen for storage at −80 °C. […] Fractions containing the 14 -3-3 protein were pooled and concentrated to ∼60 mg/mL, analyzed Q -Tof LC/MS, and aliquots were flash -frozen for storage at −80°C.
Fluorescence Anisotropy – compound titration […]

T1 sequence (P63104 whole entry, other chains not shown): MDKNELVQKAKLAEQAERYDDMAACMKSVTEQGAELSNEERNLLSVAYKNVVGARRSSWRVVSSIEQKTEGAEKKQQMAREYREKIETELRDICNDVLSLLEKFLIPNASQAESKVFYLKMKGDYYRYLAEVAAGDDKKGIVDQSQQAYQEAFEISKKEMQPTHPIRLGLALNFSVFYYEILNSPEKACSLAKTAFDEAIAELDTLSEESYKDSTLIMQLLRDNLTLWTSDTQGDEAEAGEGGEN

stabilization of 14-3-3/Raptor peptide (in words): no significant stabilization
Compound: CCc1ccc(-c2nccn2-c2ccc(C=O)c(Br)c2)cc1 [Compound 18]
